In paper PMC6482412, “Studies on spiro[4.5]decanone prolyl hydroxylase domain inhibitors” (MedChemComm, 2019):
Where two headings read alike, the source gives them in different places.

Legend:
Type in all cases: biochemical
[1] = target: T1, tPHD2 (PHD2 181-426) with HIF-1α CODD (Homo sapiens, UniProt Q9GZT9); assay: RapidFire-MS PHD2 hydroxylation assay, HIF-1α CODD peptide substrate; conditions: for tPHD2 inhibition (in words): tPHD2, HIF-1α CODD substrate
T1 construct: catalytic domain of truncated PHD2 (tPHD2, residues 181–426); His6 (N, cleaved yes); made in house; host or cells: E. coli BL21 DE3
Experimental: (§1) 11–16 were then assayed using mass spectrometry (MS) for inhibition of the catalytic domain of truncated PHD2 (tPHD2, residues 181–426) and (in selected cases) PHD3, employing either human HIF-1α CODD or NODD peptide sequences (Table 1).
(§2) Supplementary Information
(§3) RapidFire-MS PHD2 hydroxylation assays
(§4) Inhibition of PHD2 enzyme activity was assessed by mass spectrometry. The enzyme assay monitors tPHD2181-426 catalysed turnover of a C-terminal oxygenase […]
(§5) C-terminal amide) and appearance of the hydroxylated peptide product
(§6) (hydroxylation of proline 564) with a typical incubation time of 15 minutes.2 Assays were performed in 50 mM Tris.Cl pH 7.8, 50 mM NaCl, titrations of compounds for […]
(§7) ECHO 550 acoustic dispenser (Labcyte) and dry dispensed into 384-well polypropylene assay plates. The final assay concentration of DMSO was kept constant at 0.5% (v/v). tPHD2181-426 was at a concentration of 300 nM in the assay buffer (20 μM ferrous iron sulfate, 200 μM L-ascorbic acid, 10 μM CODD or NODD peptide and 20 μM 2-oxoglutarate) and 25 μl was dispensed across each 384-well assay plate. tPHD2181-426 was allowed to equilibrate with compounds for 15 minutes; the reaction was then initiated by addition of 25 μl of substrate.2 Enzyme reactions were allowed to proceed for 15 minutes and the reaction terminated by addition of 10% (v/v) formic acid (5 μl). Assay plates were then transferred to a RapidFire RF360 sampling robot (Agilent) connected to an Agilent 6530 quadrupole-time-of-flight (Q-TOF) mass spectrometer. Assay samples were aspirated under vacuum and loaded onto a C4 solid phase extraction (SPE) cartridge. After loading, the C4 SPE cartridge was washed with 0.1 % (v/v) formic acid in water to remove non-volatile buffer salts.
(§8) The peptide was then eluted from the SPE with 85% acetonitrile, 15% water containing 0.1% (v/v) formic acid into the mass spectrometer. Peptide charge states were monitored in the positive ion mode. Ion chromatogram data were extracted for […]
(§9) the +2 charge state and peak area data integrated using RapidFire Integrator software (Agilent). The % conversion of the CODD peptide substrate to the +16 hydroxylated peptide was calculated using the equation: […]
(§10) data were determined from non-linear regression plots using GraphPad prism 6.0.
(§11) All data were normalized to a no enzyme control.2

[2] = target: T2, tPHD2 (PHD2 181-426) with HIF-1α NODD (Homo sapiens, UniProt Q9GZT9); assay: RapidFire-MS PHD2 hydroxylation assay, HIF-1α NODD peptide substrate
T2 construct: catalytic domain of truncated PHD2 (tPHD2, residues 181–426); His6 (N, cleaved yes); made in house; host or cells: E. coli BL21 DE3
Experimental: as §1, §2, §3, §4, §5, §6, §7, §8, §9, §10, §11

KDM4A = target: T3, KDM4A (Homo sapiens, UniProt O75164); assay: KDM4A selectivity assay with H3(1-15) K9Me3, RapidFire-MS; conditions: isolated KDM4A, Table S2
T3 sequence (O75164 1-1064): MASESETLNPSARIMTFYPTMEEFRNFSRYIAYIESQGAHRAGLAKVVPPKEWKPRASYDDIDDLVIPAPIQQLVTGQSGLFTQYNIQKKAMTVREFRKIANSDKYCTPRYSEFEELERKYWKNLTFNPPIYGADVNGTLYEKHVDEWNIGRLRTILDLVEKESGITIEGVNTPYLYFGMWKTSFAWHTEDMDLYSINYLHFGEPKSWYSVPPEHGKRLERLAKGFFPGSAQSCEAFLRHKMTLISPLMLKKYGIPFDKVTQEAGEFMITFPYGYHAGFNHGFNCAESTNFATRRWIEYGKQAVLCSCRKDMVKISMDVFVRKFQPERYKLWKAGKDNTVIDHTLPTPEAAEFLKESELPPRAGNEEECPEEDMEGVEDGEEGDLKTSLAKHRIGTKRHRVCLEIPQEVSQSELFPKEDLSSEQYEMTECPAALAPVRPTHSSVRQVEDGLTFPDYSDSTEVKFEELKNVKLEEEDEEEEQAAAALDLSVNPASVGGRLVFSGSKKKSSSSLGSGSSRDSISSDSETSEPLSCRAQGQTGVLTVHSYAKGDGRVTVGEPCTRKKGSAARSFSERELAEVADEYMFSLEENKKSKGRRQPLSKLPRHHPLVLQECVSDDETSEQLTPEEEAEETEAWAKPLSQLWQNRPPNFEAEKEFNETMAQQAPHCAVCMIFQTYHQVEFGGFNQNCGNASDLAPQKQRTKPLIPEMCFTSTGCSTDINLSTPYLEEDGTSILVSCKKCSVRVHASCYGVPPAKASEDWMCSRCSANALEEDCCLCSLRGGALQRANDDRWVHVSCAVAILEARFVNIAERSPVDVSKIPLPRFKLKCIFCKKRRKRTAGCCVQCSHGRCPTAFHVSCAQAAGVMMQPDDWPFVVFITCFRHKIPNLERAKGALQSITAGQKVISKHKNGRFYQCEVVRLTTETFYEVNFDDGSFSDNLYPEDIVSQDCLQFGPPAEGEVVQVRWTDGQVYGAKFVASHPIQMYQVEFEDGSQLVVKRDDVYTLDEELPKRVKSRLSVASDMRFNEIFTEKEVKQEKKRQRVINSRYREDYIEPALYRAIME
From the text: (§12) We carried out initial studies on the selectivity of the spiro[4.5]decanone series.
as §2
(§13) Table S2: Studies on the selectivity of spiro[4.5]decanone containing inhibitors.
(§14) Compounds were screened against FIH with the HIF-1α CAD peptide D788 - L822 and
(§15) KDM4A with H3(1 - 15) K9Me3. Both assays employed the RapidFire-MS sampling
(§16) machine. See Experimental Methods for details. 2 […]

PHD3 = PHD3 (Homo sapiens, UniProt Q9H6Z9); assay: PHD3 catalysed HIF-1α CODD hydroxylation, RapidFire mass spectrometry
Experimental: as §1, §12

[3] = target: factor inhibiting HIF (FIH) (Homo sapiens, UniProt Q9NWT6); assay: FIH selectivity assay with HIF-1α CAD peptide D788-L822, RapidFire-MS; conditions: isolated FIH, Table S2
From the text: as §12, §2, §13, §14, §15, §16

[4] = tPHD2 181-426, HIF-1α CODD peptide, RapidFire MS, standard error of the mean (n = 3), read-out: PHD2 with HIF1-α CODD IC50
[5] = tPHD2 181-426, HIF-1α NODD peptide, RapidFire MS, standard error of the mean (n = 3), read-out: PHD2 with HIF1-α NODD IC50

T2 sequence (Q9GZT9 181-426): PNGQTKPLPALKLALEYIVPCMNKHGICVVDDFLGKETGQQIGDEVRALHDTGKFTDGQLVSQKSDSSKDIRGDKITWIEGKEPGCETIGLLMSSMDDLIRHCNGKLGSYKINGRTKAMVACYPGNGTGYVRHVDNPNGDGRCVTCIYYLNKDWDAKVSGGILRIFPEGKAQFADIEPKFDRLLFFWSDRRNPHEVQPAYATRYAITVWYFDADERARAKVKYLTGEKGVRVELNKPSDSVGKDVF
T1 sequence (Q9GZT9 181-426): as above
Chain of PHD3 (Q9H6Z9 whole entry): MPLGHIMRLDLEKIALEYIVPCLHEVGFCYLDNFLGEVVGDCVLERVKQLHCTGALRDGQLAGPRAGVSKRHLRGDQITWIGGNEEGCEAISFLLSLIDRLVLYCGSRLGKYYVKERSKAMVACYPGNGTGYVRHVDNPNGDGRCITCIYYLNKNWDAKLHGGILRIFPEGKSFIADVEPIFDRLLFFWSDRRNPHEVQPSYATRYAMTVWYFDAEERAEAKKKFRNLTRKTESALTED
Chain of factor inhibiting HIF (FIH) (Q9NWT6 whole entry): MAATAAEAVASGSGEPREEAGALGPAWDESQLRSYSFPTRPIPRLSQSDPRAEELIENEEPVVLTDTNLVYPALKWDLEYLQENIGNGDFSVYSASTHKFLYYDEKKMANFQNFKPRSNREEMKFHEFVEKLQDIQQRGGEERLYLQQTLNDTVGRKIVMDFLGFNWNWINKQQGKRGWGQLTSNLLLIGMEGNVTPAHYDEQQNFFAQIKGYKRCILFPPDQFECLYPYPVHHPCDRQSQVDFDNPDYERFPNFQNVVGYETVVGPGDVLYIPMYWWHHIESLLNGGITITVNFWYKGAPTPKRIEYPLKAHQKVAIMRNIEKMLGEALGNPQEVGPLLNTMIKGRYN

**Q.** What does the source list for `O=C1N(c2ccc(-c3ccccc3)cc2)C(=O)C2(CCNCC2)N1c1ncccn1` [Compound 10]?
**A.** IC50 [1, 4]: > 25000 nM; IC50 [2, 5]: > 25000 nM

**Q.** For `COc1cccc(CN2CCC3(CC2)C(=O)N(c2ccc(-c4ccccc4)cc2)C(=O)N3c2ncccn2)n1` [Compound 16], which IC50 [1, 4] is on record?
**A.** 1210 ± 226 nM

**Q.** And the IC50 [2, 5]?
**A.** 905 ± 417 nM

**Q.** What does the source list for `O=C1N(c2ccc(-c3ccccc3)cc2)C(=O)C2(CCN(Cc3ccccc3O)CC2)N1c1ncccn1` [Compound 13]?
**A.** IC50 [1]: > 25000 nM; tPHD2 inhibition (in words) [1]: inactive; IC50 [2]: > 25000 nM

**Q.** With `Cc1cccnc1CN1CCC2(CC1)C(=O)N(c1ccc(-c3ccccc3)cc1)C(=O)N2c1ncccn1` [Compound 11] as the molecule, how does the “KDM4A inhibition (in words)” value (KDM4A) read?
**A.** weak

**Q.** `Cc1cccnc1CN1CCC2(CC1)C(=O)N(c1ccc(-c3ccccc3)cc1)C(=O)N2c1cc(C(=O)O)ccn1` [Compound 27] was tested. Which IC50 [1, 4] did it give?
**A.** 380 ± 64 nM

**Q.** And the IC50 [2, 5]?
**A.** 94 ± 32 nM

**Q.** For `O=C1N(c2ccc(-c3ccccc3)cc2)C(=O)C2(CCN(Cc3cccs3)CC2)N1c1ncccn1` [Compound 12], which IC50 [1, 4] is on record?
**A.** > 25000 nM

**Q.** And the “tPHD2 inhibition (in words)” value [1]?
**A.** inactive

**Q.** What about the IC50 [2, 5] of the same molecule?
**A.** > 25000 nM

**Q.** Which IC50 [1, 4] does the source give for `O=C1N(c2ccc(-c3ccccc3)cc2)C(=O)C2(CCN(Cc3ncc[nH]3)CC2)N1c1ncccn1` [Compound 15] here?
**A.** 215 ± 19 nM

**Q.** What about the “tPHD2 inhibition (in words)” value [1] of the same molecule?
**A.** maintained potent inhibition

**Q.** And the IC50 [2, 5]?
**A.** 70 ± 21 nM

**Q.** With `Cn1ccnc1CN1CCC2(CC1)NC(=O)N(c1ccc(-c3ccccc3)cc1)C2=O` [Compound 24] as the molecule, how does the IC50 [1, 4] read?
**A.** 151 ± 35 nM

**Q.** What about the IC50 [2, 5] of the same molecule?
**A.** 63 ± 16 nM

**Q.** And the IC50 (PHD3)?
**A.** 219 ± 25 nM

**Q.** `Cn1ccnc1CN1CCC2(CC1)C(=O)N(c1ccc(-c3ccccc3)cc1)C(=O)N2c1ncccn1` [Compound 14] was tested. Which IC50 [1] did it give?
**A.** 143 ± 97 nM

**Q.** What about the “tPHD2 inhibition (in words)” value [1] of the same molecule?
**A.** maintained potent inhibition

**Q.** What about the IC50 [2] of the same molecule?
**A.** 49 ± 5 nM

**Q.** And the “KDM4A inhibition (in words)” value (KDM4A)?
**A.** weak

**Q.** Which IC50 (PHD3) does the source give for `Cc1cccnc1CN1CCC2(CC1)NC(=O)N(c1ccc(-c3ccccc3)cc1)C2=O` [Compound 23] here?
**A.** 1050 ± 40 nM

**Q.** Which IC50 [1, 4] does the source give for `COc1ccnc(N2C(=O)N(c3ccc(-c4ccccc4)cc3)C(=O)C23CCN(Cc2ncccc2C)CC3)n1` [Compound 26] here?
**A.** 289 ± 11 nM

**Q.** What about the IC50 [2, 5] of the same molecule?
**A.** 55 ± 15 nM

**Q.** And the “FIH inhibition (in words)” value [3]?
**A.** weak
